These results are taken from patent publication US20100056526A1, “HETEROMONOCYCLIC COMPOUND AND USE THEREOF” (Takeda Pharmaceutical Company Limited, priority 2006, published 2010).

For one assay, the target named is T1, human AT1 receptor (Homo sapiens, UniProt P30556).
T1 construct: expressed in transfected cells; host or cells: CHO-K1
T1 sequence (P30556 1-359): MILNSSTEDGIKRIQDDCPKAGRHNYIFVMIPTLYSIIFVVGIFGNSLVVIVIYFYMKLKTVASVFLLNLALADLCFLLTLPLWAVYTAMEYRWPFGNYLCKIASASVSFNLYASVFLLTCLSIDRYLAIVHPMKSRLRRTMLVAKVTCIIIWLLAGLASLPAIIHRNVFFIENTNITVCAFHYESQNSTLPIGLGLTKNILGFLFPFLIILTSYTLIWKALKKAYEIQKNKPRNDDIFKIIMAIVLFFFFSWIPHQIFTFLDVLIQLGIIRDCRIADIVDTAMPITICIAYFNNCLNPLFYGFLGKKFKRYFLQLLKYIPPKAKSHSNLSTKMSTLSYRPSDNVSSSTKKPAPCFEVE
Kind of assay: Binding assay using human AT1 receptor-expressing CHO-K1 cell membrane fraction ([125I]-angiotensin II). Particulars: 22.5 pM [125I]-angiotensin II, 9 μg AT1 membrane, 1 hr room temperature; read-out: AT1 receptor binding inhibitory action (IC50 (nM)). The method, boiled down:
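CHO-K1 membranes stably expressing AT1 (9 μg) incubated with 22.5 pM [125I]-angiotensin II and compound in 50 mM Tris pH 7.4, 10 mM MgCl2, with or without 0.3 mg/mL fatty acid-free BSA, 1 hr at room temperature. Bound radioactivity counted after GF/C filtration; nonspecific binding with 1 μM CV-11974; IC50 calculated.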

The next assay has as its target T2, PPARγ (Homo sapiens, UniProt P37231).
T2 construct: expressed in transfected cells; host or cells: CHO-K1
T2 sequence (P37231 1-477 isoform P37231-2): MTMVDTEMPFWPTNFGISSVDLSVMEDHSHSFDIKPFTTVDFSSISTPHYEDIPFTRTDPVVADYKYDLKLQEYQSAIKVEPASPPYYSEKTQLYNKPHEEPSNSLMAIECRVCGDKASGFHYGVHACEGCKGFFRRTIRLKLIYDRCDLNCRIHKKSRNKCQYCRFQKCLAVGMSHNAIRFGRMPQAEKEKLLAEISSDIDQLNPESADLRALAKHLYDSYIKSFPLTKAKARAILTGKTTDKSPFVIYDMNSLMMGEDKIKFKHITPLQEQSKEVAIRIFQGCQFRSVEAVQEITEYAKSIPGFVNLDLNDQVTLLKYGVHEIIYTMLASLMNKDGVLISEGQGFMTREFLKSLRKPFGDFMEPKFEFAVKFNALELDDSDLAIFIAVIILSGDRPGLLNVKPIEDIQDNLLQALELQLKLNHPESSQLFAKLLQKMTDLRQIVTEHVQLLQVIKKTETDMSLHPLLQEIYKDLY
T2 sequence (P19793 1-462 partner): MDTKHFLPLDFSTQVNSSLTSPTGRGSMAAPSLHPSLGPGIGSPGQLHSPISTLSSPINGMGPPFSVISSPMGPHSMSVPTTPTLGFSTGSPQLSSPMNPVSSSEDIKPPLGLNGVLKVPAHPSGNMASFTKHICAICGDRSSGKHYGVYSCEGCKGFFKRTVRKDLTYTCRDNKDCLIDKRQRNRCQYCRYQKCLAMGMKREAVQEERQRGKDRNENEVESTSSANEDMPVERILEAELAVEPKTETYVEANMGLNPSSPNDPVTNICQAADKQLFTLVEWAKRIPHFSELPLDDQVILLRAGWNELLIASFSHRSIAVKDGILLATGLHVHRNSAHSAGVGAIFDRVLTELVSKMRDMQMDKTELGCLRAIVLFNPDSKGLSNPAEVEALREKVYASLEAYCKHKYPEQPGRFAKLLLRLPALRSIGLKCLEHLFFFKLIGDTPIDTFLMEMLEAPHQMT
Kind of assay: Evaluation of PPARγ activating action (luciferase reporter in PPARγ:RXRα:4ERPP/CHO-K1 cells). Format: cell-based. The conditions noted are these: CHO-K1, 24 h, read-out: PPARγ activating action (activation % (10^−6 M)). The method, boiled down:
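CHO-K1 cells stably carrying PPARγ, RXRα and a 4ERPP luciferase reporter were treated with compound for 1 day at 37 °C in F12 medium with 0.1% fatty acid-free BSA. Luciferase activity was read and scaled between no compound (0%) and reference agonist compound X at 1 μM (100%).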

[1] abbreviates: test compound 10^−6 M, luciferase activity relative to control compound X (1 μM) = 100%, non-administration group = 0%.

The structures appear in SMILES notation. Structures can show the parent of a compound that is named as a salt. Where two headings read alike, the source gives them in different places.

On to `CCCCc1nc(CF)n(Cc2ccccc2)c(=O)c1Cc1ccc(-c2ccccc2-c2noc(=O)[nH]2)cc1` [Example 103, 3-benzyl-6-butyl-2-(fluoromethyl)-5-{[2′-(5-oxo-4,5-dihydro-1,2,4-oxadiazol-3-yl)biphenyl-4-yl]methyl}pyrimidin-4(3H)-one], for which the IC50 on human AT1 receptor came out at 1.5 nM. Further, the activation at 1 µM at PPARγ (setting [1]) worked out at 50.2%.
As to `CCCCc1nc(C)c(C(O)c2ccccc2)c(=O)n1Cc1ccc(-c2ccccc2-c2noc(=O)[nH]2)cc1` (stereo not shown) [Example 452, 2-butyl-5-[hydroxy(phenyl)methyl]-6-methyl-3-{[2′-(5-oxo-4,5-dihydro-1,2,4-oxadiazol-3-yl)biphenyl-4-yl]methyl}pyrimidin-4(3H)-one], on human AT1 receptor, the half-maximal inhibitory concentration (IC50) was found to be 2.1 nM. In addition, the activation at 1 µM at PPARγ (setting [1]) worked out at 52.9%.
Turning to `CCCc1nc(C)n(-c2ccc3c(c2)C(O)CC(C)(C)O3)c(=O)c1Cc1ccc(-c2ccccc2-c2noc(=O)[nH]2)cc1` (stereo not shown) [Example 144, 3-(4-hydroxy-2,2-dimethyl-3,4-dihydro-2H-chromen-6-yl)-2-methyl-5-{[2′-(5-oxo-4,5-dihydro-1,2,4-oxadiazol-3-yl)biphenyl-4-yl]methyl}-6-propylpyrimidin-4(3H)-one], the IC50 on human AT1 receptor came out at 1.5 nM. Moreover, the activation at 1 µM at PPARγ (setting [1]) worked out at 22.7%.
As to `CCCc1nc(CC)n(-c2ccc(OC3CCC(O)C3)cc2)c(=O)c1Cc1ccc(-c2ccccc2-c2noc(=O)[nH]2)cc1` (stereo not shown) [Example 425, 2-ethyl-3-{4-[(3-hydroxycyclopentyl)oxy]phenyl}-5-{[2′-(5-oxo-4,5-dihydro-1,2,4-oxadiazol-3-yl)biphenyl-4-yl]methyl}-6-propylpyrimidin-4(3H)-one], the IC50 at human AT1 receptor stood at 1.2 nM. Further, the activation at 1 µM on PPARγ (setting [1]) was found to be 37.5%.
The like results for `CCCCc1nc(C)n(-c2ccc(C)c(C)c2)c(=O)c1Cc1ccc(-c2ccccc2-c2noc(=O)[nH]2)cc1` [Example 202, 6-butyl-3-(3,4-dimethylphenyl)-2-methyl-5-{[2′-(5-oxo-4,5-dihydro-1,2,4-oxadiazol-3-yl)biphenyl-4-yl]methyl}pyrimidin-4(3H)-one] were, in that order, 1.5 nM and 25.3%.
With `CCCc1nc(CC)n(-c2ccc(OC3CCC[C@H]3O)cc2)c(=O)c1Cc1ccc(-c2ccccc2-c2noc(=O)[nH]2)cc1` (stereo partly drawn) [Example 381, 2-ethyl-3-(4-{[(2R)-2-hydroxycyclopentyl]oxy}phenyl)-5-{[2′-(5-oxo-4,5-dihydro-1,2,4-oxadiazol-3-yl)biphenyl-4-yl]methyl}-6-propylpyrimidin-4(3H)-one], the IC50 on human AT1 receptor came out at 1.2 nM. Moreover, at PPARγ (setting [1]), the activation at 1 µM was 28.2%.
With `CCCc1nc(C)n(-c2ccc(OC(C)C)nc2)c(=O)c1Cc1ccc(-c2ccccc2-c2noc(=O)[nH]2)cc1` [Example 325, 3-(6-isopropoxypyridin-3-yl)-2-methyl-5-{[2′-(5-oxo-4,5-dihydro-1,2,4-oxadiazol-3-yl)biphenyl-4-yl]methyl}-6-propylpyrimidin-4(3H)-one], the IC50 at human AT1 receptor was 3.4 nM. The activation at 1 µM at PPARγ (setting [1]) came to 30.2%.
Regarding `CCCc1nc(C)n(-c2ccc(OC3CCC(=O)CC3)cc2)c(=O)c1Cc1ccc(-c2ccccc2-c2noc(O)n2)cc1F` [Example 346, 5-{[3-fluoro-2′-(5-oxo-4,5-dihydro-1,2,4-oxadiazol-3-yl)biphenyl-4-yl]methyl}-2-methyl-3-{4-[(4-oxocyclohexyl)oxy]phenyl}-6-propylpyrimidin-4(3H)-one], the IC50 on human AT1 receptor turned out to be 1 nM. The activation at 1 µM on PPARγ (setting [1]) amounted to 21.8%.
On to `CCCc1nc(CC)n(-c2ccc3c(c2)CC(C)O3)c(=O)c1Cc1ccc(-c2ccccc2-c2noc(O)n2)cc1` (stereo not shown) [Example 312, 2-ethyl-3-(2-methyl-2,3-dihydro-1-benzofuran-5-yl)-5-{[2′-(5-oxo-4,5-dihydro-1,2,4-oxadiazol-3-yl)biphenyl-4-yl]methyl}-6-propylpyrimidin-4(3H)-one potassium salt], for which the IC50 on human AT1 receptor amounted to 1.6 nM. The activation at 1 µM at PPARγ is 50.3%.
With `CCCc1nc(C)c(-c2ccc(OC(C)C)cc2)c(=O)n1Cc1ccc(-c2ccccc2-c2noc(O)n2)cc1` [Example 28, 5-(4-isopropoxyphenyl)-6-methyl-3-{[2′-(5-oxo-4,5-dihydro-1,2,4-oxadiazol-3-yl)biphenyl-4-yl]methyl}-2-propylpyrimidin-4(3H)-one], the IC50 at human AT1 receptor was determined as 1.6 nM. Further, the activation at 1 µM at PPARγ (setting [1]) stood at 16.2%.
Turning to `CCCc1nc(CC)n(-c2ccc(OC3(COC)CCCC3)cc2)c(=O)c1Cc1ccc(-c2ccccc2-c2noc(=O)[nH]2)cc1` [Example 389, 2-ethyl-3-(4-{[1-(methoxymethyl)cyclopentyl]oxy}phenyl)-5-{[2′-(5-oxo-4,5-dihydro-1,2,4-oxadiazol-3-yl)biphenyl-4-yl]methyl}-6-propylpyrimidin-4(3H)-one], at human AT1 receptor, the IC50 was 1.8 nM. Also, the activation at 1 µM on PPARγ (setting [1]) came out at 18.1%.
On the same counts, the results for `CCCc1nc(C)n(-c2ccc(OC3CCC3)cc2)c(=O)c1Cc1ccc(-c2ccccc2-c2noc(=O)[nH]2)cc1` [Example 255, 3-[4-(cyclobutyloxy)phenyl]-2-methyl-5-{[2′-(5-oxo-4,5-dihydro-1,2,4-oxadiazol-3-yl)biphenyl-4-yl]methyl}-6-propylpyrimidin-4(3H)-one] are 1.7 nM and 30.5%.
The like results for `CCCc1nc(C)c(Cc2ccccc2)c(=O)n1Cc1ccc(-c2ccccc2-c2noc(=O)[nH]2)cc1` [Example 287, 5-benzyl-6-methyl-3-{[2′-(5-oxo-4,5-dihydro-1,2,4-oxadiazol-3-yl)biphenyl-4-yl]methyl}-2-propylpyrimidin-4(3H)-one] were, in that order, 1.8 nM and 40.9%.
Take `CCCc1nc(C)n(-c2ccc(O[C@@H]3C[C@@H](C)O[C@@H](C)C3)cc2)c(=O)c1Cc1ccc(-c2ccccc2-c2noc(=O)[nH]2)cc1F` [Example 338, 3-(4-{[(2R,4s,6S)-2,6-dimethyltetrahydro-2H-pyran-4-yl]oxy}phenyl)-5-{[3-fluoro-2′-(5-oxo-4,5-dihydro-1,2,4-oxadiazol-3-yl)biphenyl-4-yl]methyl}-2-methyl-6-propylpyrimidin-4(3H)-one]: the IC50 on human AT1 receptor stood at 1.8 nM. Also, on PPARγ (setting [1]), the activation at 1 µM amounted to 32.5%.
With `CCCc1nc(CC)n(-c2ccc(OC)cc2)c(=O)c1Cc1ccc(-c2ccccc2-c2noc(O)n2)cc1` [Example 313, 2-ethyl-3-(4-methoxyphenyl)-5-{[2′-(5-oxo-4,5-dihydro-1,2,4-oxadiazol-3-yl)biphenyl-4-yl]methyl}-6-propylpyrimidin-4(3H)-one potassium salt], the IC50 at human AT1 receptor was 1.5 nM. The activation at 1 µM at PPARγ amounted to 31%.
With `CCCc1nc(C)n(-c2ccc(OC(C)COC)cc2)c(=O)c1Cc1ccc(-c2ccccc2-c2noc(=O)[nH]2)cc1` (stereo not shown) [Example 293, 3-[4-(2-methoxy-1-methylethoxy)phenyl]-2-methyl-5-{[2′-(5-oxo-4,5-dihydro-1,2,4-oxadiazol-3-yl)biphenyl-4-yl]methyl}-6-propylpyrimidin-4(3H)-one], the IC50 at human AT1 receptor was 1.8 nM. Moreover, the activation at 1 µM at PPARγ (setting [1]) came out at 28.2%.
On to `CCCc1nc(OC)n(-c2ccc(OC(C)C)cc2)c(=O)c1Cc1ccc(-c2ccccc2-c2noc(O)n2)cc1` [Example 368, 3-(4-isopropoxyphenyl)-2-methoxy-5-{[2′-(5-oxo-4,5-dihydro-1,2,4-oxadiazol-3-yl)biphenyl-4-yl]methyl}-6-propylpyrimidin-4(3H)-one], for which the IC50 on human AT1 receptor was 2 nM. Besides, the activation at 1 µM at PPARγ (setting [1]) came to 50.2%.
